How the values were obtained:
[1] = active metabolite; cited from earlier work
rats = test: Drug self-administration and water-reinforced responding in rats (earlier studies); type: in vivo, rat
Experimental: Other work has extended the “anti-addictive” effect of 18-MC to oral intake of ethanol. In all cases, these effects last for at least 24 hours. […] Unlike 18-MC, ibogaine and many other iboga alkaloid congeners (approximately 30 tested) decrease responding for water as well as for drugs. And it was precisely this unique specificity that led to development and study of 18-MC.

Row | Molecule | presence in plasma as metabolite of 18-MC [1] | responding for drugs (rats; rat, in vivo) | responding for water (non-drug reinforcer) (rats; same doses that decrease drug self-administration)
1 | COC(=O)[C@@]12C[C@H]3C[C@H](CCO)[C@@H]1N(CCc1c2[nH]c2ccccc12)C3 [18-hydroxycoronaridine] | present in plasma in low concentrations |  | 
2 | ibogaine [reference compound] |  | decrease | decrease
